{"source": "patent US20120142730A1", "about": "(priority 2010, published 2012)", "origin": "cited, not measured here", "details": "Noseworthy, 2000; cited from earlier work"}
{"compound": "CN(C(=O)c1c(O)c2ccccc2n(C)c1=O)c1ccccc1", "note": "[roquinimex]", "values": [{"measurement": "Safety concerns previously seen", "result": "serositis, cardiovascular events and thrombosis"}]}
